Experimental findings from ChEMBL document CHEMBL5726774, “Triterpenoids with HIV maturation inhibitory activity” (2019) are described below.

Assay [1] in a line: (§1) HIV Cell Culture Assay: MT-2 cells and 293T cells were obtained from the NIH AIDS Research and Reference Reagent Program. MT-2 cells were propagated in RPMI 1640 media supplemented with 10% heat-inactivated fetal bovine serum, […]. The 293T cells were propagated in DMEM media supplemented with 10% heat-inactivated fetal bovine serum (FBS), 100 units/mL penicillin G and 100 μg/mL streptomycin. The proviral DNA clone of NL4-3 was obtained from the NIH AIDS Research and Reference Reagent Program. A recombinant NL4-3 virus, in which a section of the nef gene from NL4-3 was replaced with the Renilla luciferase gene, was used as a reference virus. In addition, residue Gag P373 was converted to P373S. Briefly, the recombinant virus was prepared by transfection of the altered proviral clone of NL4-3. Transfections were performed in 293T cells using LipofectAMINE PLUS from Invitrogen (Carlsbad, Calif.), according to manufacturer's instruction. The virus was titered in MT-2 cells using luciferase enzyme activity as a marker. Luciferase was quantitated using the Dual Luciferase kit from Promega (Madison, Wis.), with modifications to the manufacturer's protocol. The diluted Passive Lysis solution was pre-mixed with the re-suspended Luciferase Assay Reagent and the re-suspended Stop & Glo Substrate (2:1:1 ratio). Fifty (50) μL of the mixture was added to each aspirated well on assay plates and luciferase activity was measured immediately on a Wallac TriLux (Perkin-Elmer). Antiviral activities of inhibitors toward the recombinant virus were quantified by measuring luciferase activity in cells infected for 4-5 days with NLRluc recombinants in the presence serial dilutions of the inhibitor. The format is cell-based.

Assay [2] in a line: as §1. It counts as cell-based. The source holds these as a separate data set.

In the case of `C=C(C)[C@@H]1CC[C@]2(NCC[C@]3(O)CC[C@@H](S(C)(=O)=O)CC3)CC[C@]3(C)[C@H](CC[C@@H]4[C@@]5(C)CC=C(C6=CC[C@@](CF)(C(=O)O)CC6)C(C)(C)[C@@H]5CC[C@]43C)[C@@H]12`, the EC50 is less than 50 nM in assay [1] and greater than 50 nM in assay [2].
The corresponding values for `C=C(C)[C@@H]1CC[C@]2(NCCN3CCS(=O)(=O)CC3)CC[C@]3(C)[C@H](CC[C@@H]4[C@@]5(C)CC=C(C6=CC[C@@](CF)(OC=O)CC6)C(C)(C)[C@@H]5CC[C@]43C)[C@@H]12` are 3 nM and 170 nM.
On to `C=C(C)[C@@H]1CC[C@]2(NCCN3CCC(S(C)(=O)=O)CC3)CC[C@]3(C)[C@H](CC[C@@H]4[C@@]5(C)CC=C(C6=CCC(F)(OC=O)CC6)C(C)(C)[C@@H]5CC[C@]43C)[C@@H]12` (some centres not stated), for which the EC50 in assay [1] amounted to 4 nM.
On to `C=C(C)[C@@H]1CC[C@]2(NCCC3(O)COC3)CC[C@]3(C)[C@H](CC[C@@H]4[C@@]5(C)CC=C(C6=CC[C@@](CF)(C(=O)O)CC6)C(C)(C)[C@@H]5CC[C@]43C)[C@@H]12`, for which the figures for the EC50 in assay [1] and in assay [2] were less than 50 nM and greater than 50 nM, respectively.
For the compound `C=C(C)[C@@H]1CC[C@]2(NCCN3CCS(=O)(=O)CC(C)C3)CC[C@]3(C)[C@H](CC[C@@H]4[C@@]5(C)CC=C(C6=CC[C@@](CF)(OC=O)CC6)C(C)(C)[C@@H]5CC[C@]43C)[C@@H]12` (some centres not stated), the EC50 in assay [1] was less than 50 nM; in assay [2], greater than 50 nM.
On to `C=C(C)[C@@H]1CC[C@]2(NCCN3CCS(=O)(=O)CC3C(=O)OCC)CC[C@]3(C)[C@H](CC[C@@H]4[C@@]5(C)CC=C(C6=CC[C@@](CF)(C(=O)O)CC6)C(C)(C)[C@@H]5CC[C@]43C)[C@@H]12` (some centres not stated), for which the EC50 in assay [1] and in assay [2] was less than 50 nM in each case.
In the case of `CC(C)[C@@H]1CC[C@]2(NCCN3CCS(=O)(=O)CC3)CC[C@]3(C)[C@H](CC[C@@H]4[C@@]5(C)CC=C(C6CCC(CF)(C(=O)O)CC6)C(C)(C)[C@@H]5CC[C@]43C)[C@@H]12` (some centres not stated), the EC50 was less than 50 nM in assay [1] and greater than 50 nM in assay [2].
Turning to `C=C(C)[C@@H]1CC[C@]2(NCCC(O)(C3CC3)C3CC3)CC[C@]3(C)[C@H](CC[C@@H]4[C@@]5(C)CC=C(C6=CC[C@](CF)(C(=O)OCc7ccccc7)CC6)C(C)(C)[C@@H]5CC[C@]43C)[C@@H]12`, the EC50 was less than 50 nM in assay [1] and greater than 50 nM in assay [2].
Take `C=C(C)[C@@H]1CC[C@]2(NCCN3CCS(=O)(=O)CC3)CC[C@]3(C)[C@H](CC[C@@H]4[C@@]5(C)CC=C(C6=CCC(C)(OC=O)CC6)C(C)(C)[C@@H]5CC[C@]43C)[C@@H]12` (some centres not stated): in assay [1], the EC50 was 2 nM.
For the compound `C=C(C)[C@@H]1CC[C@]2(NCCN3CCS(=O)(=O)CC(C)C3)CC[C@]3(C)[C@H](CC[C@@H]4[C@@]5(C)CC=C(C6=CC[C@](CF)(OC=O)CC6)C(C)(C)[C@@H]5CC[C@]43C)[C@@H]12` (some centres not stated), the EC50 is less than 50 nM in assay [1] and greater than 50 nM in assay [2].
For the compound `C=C(C)[C@@H]1CC[C@]2(NCCN3CC(C)S(=O)(=O)C(C)C3)CC[C@]3(C)[C@H](CC[C@@H]4[C@@]5(C)CC=C(C6=CC[C@@](CF)(OC=O)CC6)C(C)(C)[C@@H]5CC[C@]43C)[C@@H]12` (some centres not stated), the results for the EC50 in assay [1] and in assay [2] were less than 50 nM and greater than 50 nM, respectively.
The corresponding values for `C=C(C)[C@@H]1CC[C@]2(NC(CN3CCS(=O)(=O)CC3)C(F)(F)F)CC[C@]3(C)[C@H](CC[C@@H]4[C@@]5(C)CC=C(C6=CC[C@](CF)(C(=O)O)CC6)C(C)(C)[C@@H]5CC[C@]43C)[C@@H]12` (some centres not stated) are greater than 50 nM and greater than 50 nM.
The corresponding values for `C=C(C)[C@@H]1CC[C@]2(NCCN3CCS(=O)(=O)CC3)CC[C@]3(C)[C@H](CC[C@@H]4[C@@]5(C)CC=C(C6=CCC(CF)(OC=O)CC6)C(C)(C)[C@@H]5CC[C@]43C)[C@@H]12` (some centres not stated) are 2 nM and 210 nM.
The corresponding values for `C=C(C)[C@@H]1CC[C@]2(NCCN3CCS(=O)(=O)CC3)CC[C@]3(C)[C@H](CC[C@@H]4[C@@]5(C)CC=C(C6=CC[C@](CF)(OC=O)CC6)C(C)(C)[C@@H]5CC[C@]43C)[C@@H]12` are 2 nM and 780 nM.
Take `C=C(C)[C@@H]1CC[C@]2(NCCC3(O)COC3)CC[C@]3(C)[C@H](CC[C@@H]4[C@@]5(C)CC=C(C6=CC[C@](CF)(C(=O)O)CC6)C(C)(C)[C@@H]5CC[C@]43C)[C@@H]12`: the EC50 in assay [1] was less than 50 nM; in assay [2], greater than 50 nM.
As for `C=C(C)[C@@H]1CC[C@]2(NCC[C@]3(O)CC[C@H](S(C)(=O)=O)CC3)CC[C@]3(C)[C@H](CC[C@@H]4[C@@]5(C)CC=C(C6=CC[C@](CF)(C(=O)O)CC6)C(C)(C)[C@@H]5CC[C@]43C)[C@@H]12`, the concentration for a half-maximal effect (EC50) in assay [1] was less than 50 nM; in assay [2], greater than 50 nM.
In the case of `C=C(C)[C@@H]1CC[C@]2(NCCN3CC(C)S(=O)(=O)C(C)C3)CC[C@]3(C)[C@H](CC[C@@H]4[C@@]5(C)CC=C(C6=CC[C@](CF)(OC=O)CC6)C(C)(C)[C@@H]5CC[C@]43C)[C@@H]12` (some centres not stated), the EC50 in assay [1] was less than 50 nM; in assay [2] it was greater than 50 nM.

As a reminder, the EC50 is the concentration at which the effect is half-maximal.
